In one assay the test system is HCT-29. In words: WST-1 proliferation assay, HCT-29. Format: cell-based. The settings on record: Homo sapiens; Colon HCT-29, 72 h; read-out: Anti-proliferative activity IC50 (μM) ± SD. The text has this: Several cancer cell lines were used: breast cancer cells (MDA-MB-231 (ATTCC® Number HTB-26™), MDA-MB-436 (ATTCC® Number HTB-130™), MDA-MB-438, BT-474 (ATTCC® Number HTB-20™)); cervical cancer cells (HeLa (ATTCC® Number CCL-2™)); colon cancer cells (HCT-116 (ATTCC® Number CCL-247™) and HT-29 (ATTCC® Number HTB-38™)); osteosarcoma cells (U2OS (ATTCC® Number HTB-96™)); pancreas cancer cells (MIA PaCa-2 (ATTCC® Number CRL-1420™) and Panc-10.5 (ATTCC® Number CRL-2547™)); prostate cancer cells (PC-3 (ATTCC® Number CRL-1435™) and LNCaP (ATTCC® Number CRL-1740™)); brain cancer cells (U87 glioblastoma (ATTCC® Number HTB-14™) and SH-SYSY neuroblastoma (ATTCC® Number CRL-2266™)). […]
After observation of cells under the microscope, old media were removed and the adherent cells washed gently twice with PBS (Phosphate Buffer Saline, —Ca^2+, —Mg^2+, Lonza cat no: 17-512F/12). […] 50 μl of this solution were transferred in 20 μl of isotonic solution and the cells were counted by count cellular (Beckman Coulter). […]
The cell proliferation WST-1 assay is a colorimetric assay for the quantification of cell proliferation and viability, based on the enzymatic cleavage of the tetrazolium salt WST-1 added to the culture medium, to a water soluble colored formazan dye, detected by absorbance at 450 nm, by mitochondrial succinate-tetrazolium reductase in viable cells. […]
In general terms: Tetrazolium assays rely on reduction of a dye to a coloured formazan, in cell work by metabolically active cells.

Another assay concerns MDA-MB-231 cells. In words: In vivo MDA-MB-231 tumor study in NOD-SCID mice. The conditions noted are these: for tumor size: oral gavage (FIG. 8B); for percentage of survival at day 35: oral gavage (FIG. 8C). Here is the method: Female (NOD-SCID) mice 5-6 weeks old were injected subcutaneously with MDA-MB-231 cells (5.10^6) at a single site on their right flanks. Tumors were allowed to grow (19 days) to less than […] before being pair-matched by tumor size into treatment groups (8 mice/group). One group was treated with vehicles (8 mice/group receiving cremofor 12.5%/ethanol 12.5%/H2O), one group was treated with 10 mg/kg of the compound 1 of the invention (8 mice/group receiving compound 1+cremofor 12.5%/ethanol 12.5%/H2O), one group was treated with 50 mg/kg of the compound 1 of the invention ([…] receiving compound 1+cremofor 12.5%/ethanol 12.5%/H2O). All groups received daily by oral gavages for 5 consecutive days/weeks approximately 100 μL of a solution containing the compound 1 of the invention. Mice were weighed regularly to assess toxicity of the treatments and the tumors were measured with calipers (width×width×length×Pi/6) to determine tumor growth. Mice survival was assessed during the study and metastatic development was investigated in lung, spleen and liver.

By IC50 is commonly meant the concentration that inhibits the measured activity by half.

Consider `Cc1ccc(-c2nc3ccccc3[nH]2)cc1NC(=S)NC(=O)c1ccc2c(c1)OCCO2` [Compound 1, N-[5-(1H-benzimidazol-2-yl)-2-methylphenyl]-N′-(2,3-dihydro-1,4-benzodioxin-6-ylcarbonyl)thiourea], for which, in the assay with HCT-29, the IC50 was determined as 0.5 ± 0.05 µM. In the assay with MDA-MB-231 cells (10 mg/kg), the tumor size entry was “tumor size was smaller” and the “percentage of survival at day 35” value is “about 70%”. Moreover, in the assay on MDA-MB-231 cells (50 mg/kg), the tumor size result is given as “tumor size was smaller” and the “percentage of survival at day 35” value is reported as 100%.

With `O=C(NC(=S)Nc1cccc(-c2nc3ccccc3[nH]2)c1)c1ccc2c(c1)OCCO2` [Compound 2, N-[3-(1H-benzimidazol-2-yl)phenyl]-N′-(2,3-dihydro-1,4-benzodioxin-6-ylcarbonyl)thiourea], the IC50 with HCT-29 was found to be 0.1 ± 0.01 µM.

Source of the values: patent US20130041005A1, “PHARMACEUTICAL COMPOSITIONS COMPRISING NEUROPILIN INHIBITORS, AND THEIR USE FOR THE PREVENTION AND/OR TREATMENT OF ANGIOGENIC DISORDERS AND CANCERS” (TRAGEX PHARMA, priority 2011, published 2013).
